Experimental data as given in patent publication US20240124441A1, “POLYMORPH OF LATREPIRDINE DIHYDROCHLORIDE” (BIGESPAS LTD., priority 2021, published 2024).
Read-outs that look alike come from different tables or passages of the source. Blank lines part the entries; values can stand above or below the compound they belong to.

Columns and labels:
[1] = rat, in vivo, po
Method: (§1) Those crystalline polymorphs and DMB-I were used in an animal study to evaluate absorption of crystalline forms of Latrepirdine from gastrointestinal tract into blood serum and brain tissues of the animals. Male Wistar rats were used in animal study. Rats were randomly divided into 5 groups, each group containing 28 animals, for administration of respective polymorphic forms of Latrepirdine. Respective polymorphic form of Latrepirdine was administered by oro-gastric gavage as a suspension in corn oil at a dose of 10 mg/kg. Animals were euthanized at 15, 30, 60, and 120 min after administration of Latrepirdine (7 animals at each timepoint) followed by collection of blood serum and brain tissue samples that were analyzed for Latrepirdine content by LCMS. Analyses were performed using Prominence LCMS-850 equipped with Kinetex C18 Phenomenex column. Statistical bi-factorial ANOVA analysis of analytical data was performed using Statistica-7.1. software.

[2] = rat, in vivo, po; remark: listed apart in the source
Method: as §1

[3] = Bioavailability study: Latrepirdine concentration in blood serum after oro-gastric gavage
Method: as §1

[4] = Bioavailability study: Latrepirdine concentration in brain tissue after oro-gastric gavage; settings: for Concentration of Latrepirdine in brain tissue: 10 mg/kg oro-gastric gavage, suspension in corn oil, rat, 10 mg/kg
Method: as §1

Compound: Cc1ccc2c(c1)c1c(n2CCc2ccc(C)nc2)CCN(C)C1 [Polymorph A, 2,8-dimethyl-5-[2-(6-methylpyridin-3-yl)ethyl]-3,4-dihydro-1H-pyrido[4,3-b]indole]
Concentration of Latrepirdine in blood serum ([3]; 15 min after administration, 10 mg/kg oro-gastric gavage, suspension in corn oil, rat, listed as A, 10 mg/kg): 2.0 ng/mL
Concentration of Latrepirdine in blood serum ([3]; 60 min after administration, 10 mg/kg oro-gastric gavage, suspension in corn oil, rat, listed as A, 10 mg/kg): 3.9 ng/mL
Concentration of Latrepirdine in blood serum ([3]; 120 min after administration, 10 mg/kg oro-gastric gavage, suspension in corn oil, rat, listed as A, 10 mg/kg): 2.0 ng/mL
concentration at 30 min ([3]; male, Wistar, rat, serum, oral, 10 mg/kg, Concentration of Latrepirdine in blood serum, 30 min after administration, 10 mg/kg oro-gastric gavage, suspension in corn oil, rat): 7 ng/mL
Concentration of Latrepirdine in brain tissue ([4]; 15 min after administration, listed as A): 22.4 ng/mL
Concentration of Latrepirdine in brain tissue ([4]; 30 min after administration, listed as A): 5.6 ng/mL
Concentration of Latrepirdine in brain tissue ([4]; 60 min after administration, listed as A): 76.8 ng/mL
Concentration of Latrepirdine in brain tissue ([4]; 120 min after administration, listed as A): 24.4 ng/mL

Compound: Cc1ccc2c(c1)c1c(n2CCc2ccc(C)nc2)CCN(C)C1 [Polymorph B, 2,8-dimethyl-5-[2-(6-methylpyridin-3-yl)ethyl]-3,4-dihydro-1H-pyrido[4,3-b]indole]
Concentration of Latrepirdine in blood serum ([3]; 15 min after administration, 10 mg/kg oro-gastric gavage, suspension in corn oil, rat, listed as B, 10 mg/kg): 5.9 ng/mL
Concentration of Latrepirdine in blood serum ([3]; 30 min after administration, 10 mg/kg oro-gastric gavage, suspension in corn oil, rat, listed as B, 10 mg/kg): 5.6 ng/mL
Concentration of Latrepirdine in blood serum ([3]; 60 min after administration, 10 mg/kg oro-gastric gavage, suspension in corn oil, rat, listed as B, 10 mg/kg): 7.4 ng/mL
Concentration of Latrepirdine in blood serum ([3]; 120 min after administration, 10 mg/kg oro-gastric gavage, suspension in corn oil, rat, listed as B, 10 mg/kg): 1.0 ng/mL
Concentration of Latrepirdine in brain tissue ([4]; 15 min after administration, listed as B): 23.5 ng/mL
Concentration of Latrepirdine in brain tissue ([4]; 30 min after administration, listed as B): 34.2 ng/mL
Concentration of Latrepirdine in brain tissue ([4]; 60 min after administration, listed as B): 54.4 ng/mL
Concentration of Latrepirdine in brain tissue ([4]; 120 min after administration, listed as B): 29.7 ng/mL

Continued, values first:

Median values of Cmax compared among the five tested polymorphic forms [1]: highest value
Median values of Cmax compared among the five tested polymorphic forms [2]: highest value
Concentration of Latrepirdine in blood serum ([3]; 15 min after administration, 10 mg/kg oro-gastric gavage, suspension in corn oil, rat, listed as DMB-I, 10 mg/kg): 12.8 ng/mL
Concentration of Latrepirdine in blood serum ([3]; 30 min after administration, 10 mg/kg oro-gastric gavage, suspension in corn oil, rat, listed as DMB-I, 10 mg/kg): 10.0 ng/mL
Concentration of Latrepirdine in blood serum ([3]; 60 min after administration, 10 mg/kg oro-gastric gavage, suspension in corn oil, rat, listed as DMB-I, 10 mg/kg): 9.7 ng/mL
Concentration of Latrepirdine in blood serum ([3]; 120 min after administration, 10 mg/kg oro-gastric gavage, suspension in corn oil, rat, listed as DMB-I, 10 mg/kg): 10.4 ng/mL
Cmax exceeds the Cmax of other polymorphic forms by ([3]; blood plasma, intragastric administration, versus the other four polymorphic forms): 12-240%
Tmax ([3]; male, Wistar, rat, plasma, po, 10 mg/kg): 15 min
Concentration of Latrepirdine in brain tissue ([4]; 15 min after administration, listed as DMB-I): 45.1 ng/mL
Concentration of Latrepirdine in brain tissue ([4]; 30 min after administration, listed as DMB-I): 26.8 ng/mL
Concentration of Latrepirdine in brain tissue ([4]; 60 min after administration, listed as DMB-I): 106.0 ng/mL
Concentration of Latrepirdine in brain tissue ([4]; 120 min after administration, listed as DMB-I): 49.8 ng/mL
Cmax exceeds the Cmax of other polymorphic forms by ([4]; brain tissue, intragastric administration, versus the other four polymorphic forms): 32-260%
Compound: Cc1ccc2c(c1)c1c(n2CCc2ccc(C)nc2)CCN(C)C1 [Polymorph DMB-I, 2,8-dimethyl-5-[2-(6-methylpyridin-3-yl)ethyl]-3,4-dihydro-1H-pyrido[4,3-b]indole]

Concentration of Latrepirdine in blood serum ([3]; 15 min after administration, 10 mg/kg oro-gastric gavage, suspension in corn oil, rat, listed as F, 10 mg/kg): 4.8 ng/mL
Concentration of Latrepirdine in blood serum ([3]; 30 min after administration, 10 mg/kg oro-gastric gavage, suspension in corn oil, rat, listed as F, 10 mg/kg): 6.3 ng/mL
Concentration of Latrepirdine in blood serum ([3]; 60 min after administration, 10 mg/kg oro-gastric gavage, suspension in corn oil, rat, listed as F, 10 mg/kg): 9.4 ng/mL
Concentration of Latrepirdine in blood serum ([3]; 120 min after administration, 10 mg/kg oro-gastric gavage, suspension in corn oil, rat, listed as F, 10 mg/kg): 3.6 ng/mL
Concentration of Latrepirdine in brain tissue ([4]; 15 min after administration, listed as F): 20.2 ng/mL
Concentration of Latrepirdine in brain tissue ([4]; 30 min after administration, listed as F): 32.2 ng/mL
Concentration of Latrepirdine in brain tissue ([4]; 60 min after administration, listed as F): 68.5 ng/mL
Concentration of Latrepirdine in brain tissue ([4]; 120 min after administration, listed as F): 45.1 ng/mL
Compound: Cc1ccc2c(c1)c1c(n2CCc2ccc(C)nc2)CCN(C)C1 [Polymorph F, 2,8-dimethyl-5-[2-(6-methylpyridin-3-yl)ethyl]-3,4-dihydro-1H-pyrido[4,3-b]indole]

Concentration of Latrepirdine in blood serum ([3]; 15 min after administration, 10 mg/kg oro-gastric gavage, suspension in corn oil, rat, listed as C, 10 mg/kg): 7.4 ng/mL
Concentration of Latrepirdine in blood serum ([3]; 30 min after administration, 10 mg/kg oro-gastric gavage, suspension in corn oil, rat, listed as C, 10 mg/kg): 6.8 ng/mL
Concentration of Latrepirdine in blood serum ([3]; 60 min after administration, 10 mg/kg oro-gastric gavage, suspension in corn oil, rat, listed as C, 10 mg/kg): 6.7 ng/mL
Concentration of Latrepirdine in blood serum ([3]; 120 min after administration, 10 mg/kg oro-gastric gavage, suspension in corn oil, rat, listed as C, 10 mg/kg): 7.0 ng/mL
Concentration of Latrepirdine in brain tissue ([4]; 15 min after administration, listed as C): 25.1 ng/mL
Concentration of Latrepirdine in brain tissue ([4]; 30 min after administration, listed as C): 15.0 ng/mL
Concentration of Latrepirdine in brain tissue ([4]; 60 min after administration, listed as C): 32.1 ng/mL
Concentration of Latrepirdine in brain tissue ([4]; 120 min after administration, listed as C): 39.1 ng/mL
Compound: Cc1ccc2c(c1)c1c(n2CCc2ccc(C)nc2)CCN(C)C1 [Polymorph C, 2,8-dimethyl-5-[2-(6-methylpyridin-3-yl)ethyl]-3,4-dihydro-1H-pyrido[4,3-b]indole]
